Laboratory results from publication PMC7721636 (Metabolic Engineering Communications, 2020).

Molecular target: T1, Prk (Synechocystis sp. PCC 6803, UniProt P37101)
T1 sequence (P37101 1-332): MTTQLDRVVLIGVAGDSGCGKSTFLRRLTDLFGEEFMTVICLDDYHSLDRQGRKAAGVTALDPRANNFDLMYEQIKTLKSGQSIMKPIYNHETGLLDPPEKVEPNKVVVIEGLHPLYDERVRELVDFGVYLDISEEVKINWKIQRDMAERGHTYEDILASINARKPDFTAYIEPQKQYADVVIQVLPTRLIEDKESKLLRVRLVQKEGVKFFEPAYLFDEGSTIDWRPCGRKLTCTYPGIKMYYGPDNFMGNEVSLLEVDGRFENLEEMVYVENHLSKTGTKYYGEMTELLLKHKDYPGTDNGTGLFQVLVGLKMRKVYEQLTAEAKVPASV
Assay: coupled pyruvate kinase/lactate dehydrogenase assay, NADH at […] nm
Format: biochemical

Ki: 1.45 ± 0.13 mM
Compound: O=C(O)C[C@H](C(=O)O)[C@@H](O)C(=O)O [isocitrate]
